“Also recorded” adds a separate entry of the source.

In general, EC50 refers to the concentration at which the effect is half-maximal. For orientation: Cmax means the peak of the concentration-time curve. Usually half-life stands for how long it takes for the measured level to halve.

In data set [1] the test system is human adipocytes. The experiment in a line: Lipolysis assay (agonist-stimulated glycerol release). The class given is cell-based. As to conditions: agonist exposure 4.5 hours, white and NRBC-treated adipocytes. The method, then: Thermogenesis is fueled by lipolysis, so we determined whether agonist-stimulated glycerol release, a measure of lipolysis, reflected the increases in receptors and lipolysis machinery in NRBC-treated adipocytes. First, adipocyte cultures from four donors who had obesity were treated with cell medium (untreated control cells) or NRBC for seven days. On the day of the acute lipolysis assay, cells were exposed to the individual receptor agonists for […] in buffer and glycerol released into the cell supernatant was measured. Non-hydrolyzable 8-cpt-cAMP, a potent activator of PKA signaling, was also evaluated in each experiment as a positive control since it bypasses individual receptors and measures the maximum capacity for lipolysis (36). The βARs, PTHR, MC1R, GPER and ADORA2B are all stimulatory G-protein (Gs) coupled receptors and signal through the CAMP-PKA signal transduction mechanism. NPR1 is not a Gs-coupled receptor and signals through an alternate mechanism of guanylate cyclase-cGMP-protein kinase G (PKG).
Cells were differentiated in 96-well plates and treated with cell medium (untreated) or NRBC for seven days. On the day of the lipolysis assay, cells were exposed for 4.5 hours to buffer (KRB with 1% BSA) or receptor agonists dissolved in buffer. Agonists were used at concentrations shown to give maximum responses and were: 8-Cpt-cAMP 200 μM non-hydrolyzable PKA activator of maximum stimulated lipolysis (cAMP) (36), atrial natriuretic peptide 0.1 μM for NPR1 and NPR3(37), parathyroid hormone (amino acids 1-34) 1 μM for PTHR(38), isoproterenol 1 μM all βARs and dobutamine 1 μM for β1AR (39), estradiol 1 μM for GPER (40), growth hormone 250 ng/ml for GHR (41), adrenocorticotropin hormone 1 μM for MC1R (42), bile acid chenodeoxycholic acid 30 μM for TGR5(43), adenosine 1 μM for ADORA1 and ADORA2B (44), and menthol 100 μM for TRPM8(45). Supernatants were removed for measurement of glycerol released using Glycerol Reagent A, and concentrations were determined using a standard curve. Data are from four or five experiments each with cells from different donors with BMI from 27 to 36.

Data set [2] concerns the target CDK5 (Homo sapiens, UniProt Q00535). As to conditions: cited from earlier work.
Data set [3] relates to human adipocytes. The experiment in a line: mRNA levels (qRT-PCR) in human adipocyte cultures treated for seven days. To be noted: for UCP1 gene expression, carotenoid combined with NR: 2 μM carotenoid + 8 μM NR, seven days, vs NR alone; for gene expression, β-carotene added to naringenin: 2 μM β-carotene + 8 μM naringenin extract, 7 days. The data set is classed as cell-based. From the text: In adipocytes, CDK5 inhibitors reduce adipogenesis and increase genes for energy expenditure by altering PPARγ target gene selection. We measured the expression of the PPARα/γ direct target gene UCP1 after treating human adipocyte cultures with CDK5-inhibiting flavonols combined with naringenin for seven days.
Human adipose-derived stem cells from overweight and obese female donors were purchased from LaCell, LLC (New Orleans, Louisiana) or isolated from lipoaspirate waste donated post-surgery from women with obesity using methods as previously described (31). Cells were seeded, maintained until two days after becoming confluent, and differentiated into adipocytes in the presence of rosiglitazone and isobutylmethylxanthine for five days as previously described (25). […], dissolved in DMSO at 1000×, started 5 days after the differentiation period and lasted for seven days in adipocyte maintenance medium with heat inactivated serum, before RNA and protein were isolated from adipocyte cultures.
Quantitative reverse transcriptase and real-time PCR were conducted in one reaction with the gene-specific reverse PCR primer also priming the cDNA synthesis as previously described (25). Primer-probe sequences for UCP1, GLUT4, ATGL, adiponectin, PGC-1α and ribosomal RPL13A, used to adjust target gene values for total RNA in each sample, have been previously reported (25). […] Predesigned human primer and probe sets from Thermofisher Scientific are PM20D1 Hs00399438_m1; ANGPTL4 Hs00211522_m1; GDF11 Hs00195156_m1; S100B Hs00902901_m1.

The subject of data set [4] is human adipocytes. Described as above. To be noted: for gene expression, carotenoid alone: 2 μM carotenoid individually, seven days. The class given is cell-based.
For data set [5], the system named is human adipocytes. Nature of the data set: Protein levels by Western blotting in human adipocytes treated for seven days. To be noted: 8 μM NR or 50 nM myricetin, 7 days. The class given is cell-based. From the text:
Since we saw an increase in SIRT3 mRNA and myricetin upregulates SIRT3 protein in adipocytes from mice, we analyzed levels of SIRT3 protein in human adipocytes treated for seven days with the same concentrations of compounds. Protein was isolated from adipocytes and analyzed on immunoblots probed with antibodies that specifically bind human SIRT3 or human β-actin. […] However, adding myr to NR+BC boosted SIRT3 protein by 37%.
Human adipose-derived stem cells from overweight and obese female donors were purchased from LaCell, LLC (New Orleans, Louisiana) or isolated from lipoaspirate waste donated post-surgery from women with obesity using methods as previously described (31). Cells were seeded, maintained until two days after becoming confluent, and differentiated into adipocytes in the presence of rosiglitazone and isobutylmethylxanthine for five days as previously described (25). Treatments of adipocytes with 8 μM NR and 2 μM carotenoid, dissolved in DMSO at 1000×, started 5 days after the differentiation period and lasted for seven days in adipocyte maintenance medium with heat inactivated serum, before RNA and protein were isolated from adipocyte cultures.
Whole cell protein was isolated from differentiated cell cultures after treatment for seven days, lysed with RIPA buffer containing protease and phosphatase inhibitors, and pushed through a 20-gauge needle four times to disrupt organelles. Fifty micrograms of total cell protein were loaded per lane and resolved in 7.5% SDS-PAGE gels, transferred to nitrocellulose membranes, and probed overnight at 4° C. with specific primary antibodies. Anti-rabbit or -mouse secondary antibodies conjugated to horseradish peroxidase were used for detection of target proteins. Image J was used to quantify protein bands on Western blots. To adjust for variations in total protein loaded in each lane, β-actin was used.
For orientation: In western blotting, separated proteins are transferred to a membrane and probed.

Data set [6] has as its system human fat cells. The experiment in a line: Oxygen consumption rate of human fat cells. The data set is classed as cell-based. The source says:
Referring to FIG. 8, cells consume oxygen while metabolizing fat for thermogenic energy expenditure, and we directly measured oxygen consumption rate.

Data set [7] is described as follows: clinical. To be noted: human, in vivo, 150 mg.
A short description of data set [8]: Case study of naringenin in an individual with obesity and diabetes. The class given is in vivo, human. The method, then: Next, we gave 150 mg of naringenin extract in 500 mg of orange extract three times a day by capsule to a person who was obese and had type 2 diabetes that was only treated with diet. They took the capsule three times a day for 8 weeks without going on a diet or changing their exercise habits. […] For an obesity drug to get approval for weight loss it should cause a loss of 5%, so the results were close to what one can expect for a drug. Their insulin resistance went down by 20% and their metabolic rate went up by 3 percent.
We went back to the person whom we tested at 150 mg three times a day with naringenin, and tested them with 300 mg three times a day. They maintained the loss on the lower dose of naringenin and had also lost further weight, so they were below their natural weight set point.

For data set [9], the system named is human adipocytes. Nature of the data set: Protein levels by Western blotting in human adipocytes treated for seven days. The class given is cell-based.
[10] abbreviates: 150 mg three times a day, 8 weeks.
Setting [11] is: 150 mg three times a day, eight weeks.

CDK5, sequence (Q00535 whole entry, species assumed): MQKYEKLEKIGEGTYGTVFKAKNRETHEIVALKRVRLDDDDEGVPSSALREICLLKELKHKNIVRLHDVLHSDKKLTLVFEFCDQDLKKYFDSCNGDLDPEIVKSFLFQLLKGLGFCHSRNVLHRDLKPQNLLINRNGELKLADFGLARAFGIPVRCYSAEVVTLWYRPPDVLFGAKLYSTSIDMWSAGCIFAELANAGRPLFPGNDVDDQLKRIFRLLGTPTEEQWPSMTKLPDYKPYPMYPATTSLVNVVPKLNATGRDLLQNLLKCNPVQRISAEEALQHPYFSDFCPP
CDK5, sequence (Q15078 whole entry partner, species assumed): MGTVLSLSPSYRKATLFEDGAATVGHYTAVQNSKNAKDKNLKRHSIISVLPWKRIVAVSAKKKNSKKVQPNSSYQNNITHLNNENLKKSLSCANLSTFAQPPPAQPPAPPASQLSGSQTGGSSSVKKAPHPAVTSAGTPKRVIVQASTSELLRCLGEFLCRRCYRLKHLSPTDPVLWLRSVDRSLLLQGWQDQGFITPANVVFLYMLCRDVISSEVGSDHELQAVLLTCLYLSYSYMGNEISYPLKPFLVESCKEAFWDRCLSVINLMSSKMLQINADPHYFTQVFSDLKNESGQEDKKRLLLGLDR

Take `Nc1ncnc2c1ncn2[C@@H]1O[C@H](CO)[C@@H](O)[C@H]1O` [adenosine]: the “lipolysis stimulated by the receptor agonist itself” value (“lipolysis stimulated” below) in [1] was “no effect”.

For the compound `C[C@]12CC[C@@H]3c4ccc(O)cc4CC[C@H]3[C@@H]1CC[C@@H]2O` [estrogen, estradiol], in data set [1], the “lipolysis stimulated” value is “small reduction in lipolysis; also recorded: neither growth hormone nor estrogen stimulated lipolysis”.

As for `O=c1c(O)c(-c2ccc(O)cc2)oc2cc(O)cc(O)c12` [kaempferol, reference compound], in data set [2], the “CDK5 kinase activity inhibition EC50 (in words)” value was “low micromolar range”. Further, in data set [2] (read-out: CDK5 inhibition EC50), the EC50 is 66 µM.

As to `CC1=C[C@H](O)CC(C)(C)[C@H]1/C=C/C(C)=C/C=C/C(C)=C/C=C/C=C(C)/C=C/C=C(C)/C=C/C1=C(C)C[C@@H](O)CC1(C)C` [lutein], in data set [3], the “UCP1 gene expression, carotenoid combined with NR” value (from here on “UCP1 gene expression”) is listed as “synergistic; also recorded: synergistically enhanced levels of UCP1”. Besides, in data set [4], the “gene expression, carotenoid alone” value was “no effect on gene expression”.

As for `CC(C)=CCC/C(C)=C/C=C/C(C)=C/C=C/C(C)=C/C=C/C=C(C)/C=C/C=C(C)/C=C/C=C(\C)CCC=C(C)C` [lycopene], the entries for the “UCP1 gene expression” value in [3] and in [3] (listed as Lycopene) were “did not alter NR-stimulated UCP1 levels” and “did not alter the NR response”, respectively. Further, the “gene expression, carotenoid alone” value in data set [4] is given as “no effect on gene expression”.

As for `O=C1C[C@@H](c2ccc(O)cc2)Oc2cc(O)cc(O)c21` [naringenin], the “UCP1 and GLUT4 mRNA, naringenin concentration curve” value in data set [3] (naringenin 0.03 μM to 8 μM with constant 3 μM myricetin) is on record as “increased gene expression in a concentration-dependent manner”. The adiponectin production entry in data set [3] (naringenin alone (FIG. 9)) was “increased production of a secreted hormone (adiponectin)”. The “SIRT3 protein levels, single agent” value in data set [5] is listed as “upregulate SIRT3 protein levels”. In [6], the “basal and maximal energy expenditure (oxygen consumption rate)” value is “strong inducer of basal and maximal energy expenditure”. Also, in data set [7], the Cmax was ~16 µM and the half-life was 3 h. Also, in [8] (setting [10]), the body weight loss stood at 2.3%, the “decrease in insulin resistance” value came to 20% and the “increase in metabolic rate” value is given as 3%. Besides, in data set [8] (setting [11]), the “increase in energy expenditure” value was 3.5% and the “reduction of fasting insulin concentrations” value came out at 20%. In addition, the “body weight at higher dose” value in [8] (300 mg three times a day, same person) is “only maintained their weight loss without adding further weight loss”. For the same compound, the diabetes status result in [8] (after weight loss following the 150 mg dose) was “resolved their diabetes”. Moreover, the UCP-1 expression entry in data set [4] (human fat cells in culture and adult adipose specimens, naringenin alone) was “caused an increase in Uncoupling Protein-1 (UCP-1)”. In data set [9] (8 μM NR, 2 μM BC, 7 days), the “PGC-1α protein levels vs untreated control” value was “approximately two-fold”. Moreover, the “protein levels of PPARα, PPARγ, PGC-1α and NAMPT” value in data set [9] (NR alone) is recorded as “did not upregulate protein levels”. Moreover, in data set [9] (naringenin 8 μM over 7 days (FIG. 10)), the “UCP-1 and adiponectin protein levels” value was “protein levels for UCP-1 and adiponectin increased”.

Turning to `CC1=C(/C=C/C(C)=C/C=C/C(C)=C/C=C/C=C(C)/C=C/C=C(C)/C=C/C2=C(C)CCCC2(C)C)C(C)(C)CCC1` [β-carotene, β-Carotene], in [3] (2 μM BC added to NR+myr, vs NR or NR+myricetin), the “SIRT3 mRNA expression” value is given as “significantly increased SIRT3 expression”. Moreover, the “UCP1 gene expression” value in [3] (listed as BC) is “synergistic; also recorded: synergistically enhanced levels of UCP1”. The “gene expression, β-carotene added to naringenin” value in data set [3] is “synergistically enhances the effects of naringenin on gene expression; also recorded: synergistically induces gene expression”; in data set [3] (listed as beta-carotene), “synergistically increases expression of genes for thermogenic energy expenditure and insulin sensitivity”. In [4], the “gene expression, carotenoid alone” value was “no effect on gene expression”.

Consider “adrenocorticotropin hormone (SYSMEHFRWGKPVGKKRRPVKVYPNGAEDESAEAFPLEF; Corticotropin; UniProt P01189 138-176, looked up) [ACTH, MC1R agonist used in lipolysis assay]”, for which the “lipolysis stimulated” value in data set [1] is “no effect”.

Take “growth hormone: human pituitary growth hormone, GHR agonist in lipolysis assay”: the “lipolysis stimulated” value in [1] was “neither growth hormone nor estrogen stimulated lipolysis”.

With parathyroid hormone (1-34) [PTH], in [1], the “lipolysis stimulated” value is listed as “highest in control white adipocytes”.

The values above are taken from patent US20250213519A1, “SYNERGY FOR INCREASING INSULIN SENSITIVITY” (Board of Supervisors of Louisiana State University and …, priority 2022, published 2025).
